Measured values published in patent US9885086B2, “Phospholipase C gamma 2 and resistance associated mutations” (Pharmacyclics LLC, priority 2014, dated 2018).

Test system: DT40 cells stably expressing mutated PLCγ2 (L845F)
Test: Calcium flux assay in DT40 cells after anti-IgM stimulation
Format: cell-based, chicken
Settings: L845F PLCγ2 mutant DT40 cells, 1 μM Ibrutinib 30 min
Method: The intracellular calcium level was detected by Calcium Assay Kit (BD Biosciences, San Diego, Calif.) and measured by Beckman Coulter DTX880 microplate reader. After 195 seconds of acquisition to determine the baseline, 3 μg/ml anti-chicken IgM (SouthernBiotech, Birmingham, Ala.) was added to stimulate the cells.
WT PLCγ2 and L845F PLCγ2 were stably transfected into 293 cells and DT40 cells which lack endogenous PLCγ2 expression (FIG. 5). Calcium flux was examined in DT40 cells after anti-IgM stimulation in the presence of WT or mutant PLCγ2.

## C=CC(=O)N1CCC[C@@H](n2nc(-c3ccc(Oc4ccccc4)cc3)c3c(N)ncnc32)C1 [ibrutinib]
  inhibition of IgM-mediated calcium flux: not inhibited
